Values quoted from earlier work as cited in patent publication US11589578B2, “Painting with biocides composition and/or prolonged release pesticides” (priority 2018, dated 2023).
Read-outs that look alike come from different tables or passages of the source.

Details: for Stability in aqueous media, in words: pH as stated in the value

CCOP(=S)(OCC)Oc1nc(Cl)c(Cl)cc1Cl [Chlorpyrifos]
Decomposition time (Average life) (aqueous media, pH 10): 7 days

C=CCC1=C(C)C(OC(=O)C2C(C=C(C)C)C2(C)C)CC1=O [D-allethrin]
Decomposition time (Average life) (aqueous media, pH 7): 500 days
Decomposition time (Average life) (aqueous media, pH 9): (4.3 days)
Stability in aqueous media, in words: Stable at a pH 5 after 31 days

CCOP(=S)(OCC)Oc1cc(C)nc(C(C)C)n1 [Diazinon]
Decomposition time (Average life) (aqueous media, pH 5): 31 days
Decomposition time (Average life) (aqueous media, pH 7.5): 185 days
Decomposition time (Average life) (aqueous media, pH 9): 136 days

O=C(NC(=O)c1c(F)cccc1F)Nc1ccc(Cl)cc1 [Diflubenzuron]
Behaviour at pH 9, in words (aqueous media, pH 9): Hydrolyzes

CCN(CC)c1nc(C)cc(OP(=S)(OC)OC)n1 [Methylperimiphos]
Decomposition time (Average life) (aqueous media, pH 5): 7 days
Decomposition time (Average life) (aqueous media, pH 8): 5 days

CC1(C)C(C=C(Cl)Cl)C1C(=O)OC(C#N)c1cccc(Oc2ccccc2)c1 (stereo not shown) [cypermethrin]
Decomposition time (Average life) (aqueous media, pH 9): 7 days

CC1(C)[C@H](C(=O)O[C@H](C#N)c2cccc(Oc3ccccc3)c2)[C@@H]1C=C(Br)Br [deltamethrin]
Decomposition time (Average life) (aqueous media, pH 7): 0.33 days
Stability in aqueous media, in words: more stable in medium acid solutions
